In BindingDB's records for doi:10.1016/j.chembiol.2017.03.002 (Jagiellonian University, 2017):

Target: T1, Ubiquitin carboxyl-terminal hydrolase 2 [258-605] (Homo sapiens, UniProt O75604)
T1 construct: 258-605
T1 sequence (O75604 whole entry): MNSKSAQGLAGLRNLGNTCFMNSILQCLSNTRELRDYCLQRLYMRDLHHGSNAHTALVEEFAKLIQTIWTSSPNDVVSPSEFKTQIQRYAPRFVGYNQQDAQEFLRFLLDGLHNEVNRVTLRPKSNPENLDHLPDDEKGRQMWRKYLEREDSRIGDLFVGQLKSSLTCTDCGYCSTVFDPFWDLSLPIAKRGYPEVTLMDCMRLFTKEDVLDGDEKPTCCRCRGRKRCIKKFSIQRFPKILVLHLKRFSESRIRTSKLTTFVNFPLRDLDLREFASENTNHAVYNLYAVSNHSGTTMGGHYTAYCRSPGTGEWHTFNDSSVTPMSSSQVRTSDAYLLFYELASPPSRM
Experiment: Ub-AMC-Hydrolysis Assay
Description: The assays were performed using Infinite 200 PRO - Tecan plate reader and 96-well, black Greiner microplates in a […] reaction volume. […]

COC(=O)C1CC[C@@]2(C)[C@H](CC[C@@H]3[C@@H]2CC[C@]2(C)[C@@H]([C@H](C)CCC(=O)O)CC[C@@H]32)C1 (stereo partly specified) [LCAE]
IC50: 5.8 µM
